Source: US8394742B2, “Methods, compounds and compositions with genotype selective anticancer activity” (The Translation Genomics Research Institute, priority 2005, dated 2013)

Experiments:
Panc-1 (DPC4 wildtype) = assay: MTS cell proliferation assay, Panc-1 cells; format: cell-based; conditions: Homo sapiens
Description: (§1) The inhibition of cell proliferation by library compounds was evaluated using the CellTiter 96 Non-Radioactive Cell Proliferation Assay following the protocol recommended by the manufacturer (Promega, Madison Wis.). Briefly, 2000 cells were seeded in each well of 96-well plates in 90 μl growth medium. Cells were allowed to attach overnight followed by addition of 10 μl of serially diluted compounds into the plates. After incubation for 4 days at 37° C. in a humidified incubator, 20 μl of a 20:1 mixture of (3-(4,5-dimethylthiazol-2-yl)-5-(3-carboxymethoxyphenyl)-2-(4-sulfophenyl)-2H-tetrazolium, inner salt (MTS, 2 mg/ml) and an electron coupling reagent, phenazine methosulfate (PMS, 0.92 mg/ml), was added to each well and incubated for 3 hours at 37° C. Absorbance was then measured using the Wallace Victor microplate reader at 490 nm (PerkinElmer, Wellesley, Mass.). Data were expressed as the percentage of cell growth calculated from the absorbance corrected for background absorbance. The surviving fraction of cells was determined by dividing the mean absorbance values of the treated samples by the mean absorbance values of the DMSO control.
(§2) After generating the isogenic cell lines for the DPC4 gene, Applicants then carried out a screening process using the cell lines with the aim to identify compounds that selectively kill cells with deficient DPC4 function. […]

BxPC-3 cells [1] = assay: Annexin V-FITC apoptosis assay; format: cell-based, human; conditions: BxPC-3, 25 μM, 24 hours; untreated control 4.6%
Description: Cells were grown and treated with UA62001 as described in the cell cycle distribution analysis section above. Twenty-four hours after the treatment with the compound, cell media containing detached floating cells were transferred to 15 ml conical tubes; while the attached cells were trypsinized and collected in the same tube. Cells were then pelleted by centrifugation at 1500 rpm for 5 min, washed with PBS and then resuspended in 1×binding buffer at a concentration of 1×10^6 cells/ml. One hundred microliters (1×10^5 cells) were incubated with 5 μl of Annexin V-FITC (BD Pharmingen) and propidium iodide for 15 min in the dark at room temperature. After adding 400 μl of the 1× binding buffer, the cells were analyzed by flow cytometry (BD Immunocytometry systems). Data were acquired and analyzed using CellQuest software.

HPDE6 (wild-type DPC4) = assay: MTS cell proliferation assay, HPDE6 cells; format: cell-based; conditions: Homo sapiens
Description: At the initial screening, compounds are tested in the MTS assay (or other cell proliferation assays such as SRB and Alamar Blue) against the cell line in which the specific gene is either deleted or suppressed by siRNA at a single dose of 10 μM (Toxicity Screening).
Compounds that show more than 50% cell growth inhibition at this concentration are selected to test against both isogenic cell lines (loss-of-function vs. wild type) at three different concentrations (10, 2 and 0.4 μM, Synthetic lethal Screening). Compounds that show a selectivity index ≧5 are selected for next round of screening—Selectivity Screening.
In the Selectivity Screening, compounds are tested against cancer cell lines with a specific loss-of-function mutation and normal cells (HPDE6 and FORF-TERT). Depending on their approximate potency assessed in the Synthetic lethal Screening, compounds are tested in a range of concentrations (8 concentrations per agent) in Selectivity Screening. Compounds that have nM IC50 values in loss-of-function cells and selectivity index values >10 are selected for phenotypic consequence tests and in vivo evaluations in animal models.
The inhibition of cell proliferation by library compounds was evaluated using the CellTiter 96 Non-Radioactive Cell Proliferation Assay following the protocol recommended by the manufacturer (Promega, Madison Wis.). […]

HS766T (DPC4 deleted) = assay: MTS cell proliferation assay, HS766T cells; format: cell-based; conditions: Homo sapiens
Description: as §1, §2

Forf = assay: MTS cell proliferation assay, Forf normal fibroblasts; format: cell-based, human; conditions: even at 200 μM
Description: as §1, §2

BxPC-3 cells [2] = assay: Cell cycle distribution analysis (propidium iodide, flow cytometry); format: cell-based, human; conditions: BxPC-3, 25 μM
Description: Cells (5×10^5) were plated in a T-25 tissue culture flask 24 hours prior to the drug treatment. […] After the treatment, the cells were harvested by trypsinization and centrifugation and then stained with propidium iodide (Sigma) in a modified Krishan buffer (20) for 4 hours at 4° C. The PI stained samples were then analyzed with a FACScan flow cytometer (BD Immunocytometry systems, San Jose, Calif.). Histograms were analyzed for cell cycle compartments and the percentage of cells at each phase of the cell cycle was calculated using CellQuest (BD Immunocytometry systems) analysis software.

## O=C1c2ccccc2C(=O)c2c1ccc1c(=O)n(-c3ccccc3)[nH]c21 [UA62001, 2-phenyl-1H-Naphth [2,3-g]indazole-3,6,11(2H)-trione]
Panc-1 (DPC4 wildtype)
  IC50: 26 µM
BxPC-3 cells [1]
  percentage of cells in the M1 region (Annexin V staining): 8.2%
HPDE6 (wild-type DPC4)
  IC50: > 100 µM
HS766T (DPC4 deleted)
  IC50: 3.1 µM
Forf
  growth inhibition: little growth inhibition
BxPC-3 cells [2]; 24 hours, control 33.6%
  cell population in S phase: 55.6%
BxPC-3 cells [2]; 48 hours, control 28.6%
  cell population in S phase: 59.5%
BxPC-3 cells [2]; 72 hours, control 17.0%
  cell population in S phase: 57.4%
BxPC-3 cells [2]; untreated control ~10%
  G2/M phase population: ~20%
